Entries after “also recorded” stand apart in the source; their conditions may differ.
Assays:
[1] = in vivo; cited from earlier work
[2] = system: genetically narcoleptic Doberman pinschers; experiment: health and behavior observed throughout the study; format: in vivo
Method: (§1) Six genetically narcoleptic Doberman pinschers (5 males and 1 female) served as subjects. We analyzed the effect of systemically administered Hcrt-1 on cataplexy with a modified food elicited cataplexy test (FECT). The effect of Hcrt-1 administration on sleep organization was determined using polygraph recording. The effect of Hcrt-1 administration on activity levels and the duration of sleep-waking states over the 24-hr period was determined with actigraphy.
(§2) One to 4 μg/kg of Hcrt-1 (orexin-A, #003-30, Phoenix Pharmaceuticals, Mountain View, Calif.) dissolved in normal saline (100 μg in 2 ml) was administered through the cephalic vein using a glass syringe. The glass syringe was pre-soaked in 1% BSA, rinsed in Milli-Q water, then dried at 60° C. prior to use. This treatment combined with the large volume of the dilutent used minimizes problems caused by the “stickiness” of the peptide. On control days, saline was administered in the same manner. Hcrt-1 or control injections were administered daily at the same time.

REM sleep = settings: intracerebroventricular administration; cited from earlier work
Hcrt-1 antiserum = experiment: solid-phase radioimmunoassay (RIA) for Hcrt-1; format: binding; settings: competition with 125I-labeled Hcrt-1
Text: Furthermore, sensitivity is increased over that obtained with more traditional methods using identical antibodies and assay volumes. In this system, the antibody is immobilized onto the surface of 96-well Immulon II-coated plates (Dynatech) through attachment of the constant region of the immunoglobulin (Ig) molecule to the purified bacterial wall protein-protein A (the use of this protein greatly increases the capacity of the wells for antibody thereby avoiding the necessity for antibody purification). […] After a pre-determined incubation period separation of bound from free tracer peptide is accomplished by simply pouring out the contents of the wells and washing with buffer. For example, the individual wells of a 96-well plate containing Ab-bound tracer peptide are then physically separated and counted in a gamma counter. […]
The Hcrt-1, iodinated Hcrt-1, and Hcrt-1 antiserum were obtained from Phoenix Pharmaceuticals, Inc. (530 Harbor Blvd, Belmont, Calif.). […] This enables direct reading of radioactivity in a Top Count plate reader (Packard) without the requirement to separate out individual wells.
The 96-well plates are first coated with protein A(Sigma, binding capacity 9-11 mg of human IgG per mg) by adding 0.1 μg in 100 μl of 0.1M sodium bicarbonate, pH9, to each well. […] The antibody dilution used is that which is pre-determined to produce 20-30% maximum binding in the assay. […]

[3] = system: genetically narcoleptic Doberman pinschers; experiment: modified food elicited cataplexy test (FECT); format: in vivo; settings: for cataplexy (number of cataplectic attacks): FECT 4 min after administration; for FECT time (time to consume the food) / cataplexy (number of cataplectic attacks / falls): vs saline control
Method: as §1, §2
FECT was done by introducing a bowl of soft food (Pedigree, by Kalkan) in the home cage and counting the number of cataplectic attacks (including hind limb collapse and total cataplexies in which all four limbs collapse and the whole body contacts the floor) and total time required to eat the food (FECT time). All the FECTs began 4 min after the administration of Hcrt-1 or saline.
(§3) Data were analyzed with ANOVA, followed by post-hoc comparisons using Newman-Keuls tests. Bonferroni t-tests were done to compare the effect of Hcrt-1 on sleep stages measured with polygraphic recording. One sample t-tests were performed to test the significance of number of cataplectic attacks and FECT time (expressed as a percentage of baseline) after Hcrt-1 within each dose.

[4] = Hcrt-1 levels by solid-phase RIA, narcoleptic dog; format: in vivo
Method: In order to assess the effect of the intravenous Hcrt-1 injection on central levels of the compound, cerebrospinal fluid (CSF) and blood serum was collected and analyzed after infusion of Hcrt-1. In these studies, Hcrt-1 was injected intravenously as in the behavioral studies into two Doberman pinschers, one narcoleptic, and one control that had been anesthetized with Fluothane anesthesia. Saline was injected in a third dog, a non-narcoleptic control. Prior to injection and at 15, 30 min and one hour intervals after injection, CSF was collected from the cisterna magna with a spinal needle and then quickly frozen at −20. Hypocretin was extracted from 0.5-1 ml samples with reverse a phase SEP-PAK C18 column. An ^125I Hcrt-1 radioimmunoassay was used to measure levels in reconstituted aliquots (described below).
(§4) Prior to RIA, Hcrt-1 is extracted from the CSF or plasma sample. This is achieved by acidification of the sample with 1% TFA followed by loading onto a C18 Sep-Column, washing the column with 1% TFA, and eluting the peptide with 1% TFA/40% acetonitrile. The eluant is then dried down and re-suspended in RIA buffer ready for assay.
The 96-well plates are first coated with protein A(Sigma, binding capacity 9-11 mg of human IgG per mg) by adding 0.1 μg in 100 μl of 0.1M sodium bicarbonate, pH9, to each well. The plates are normally prepared in advance and can be stored for several weeks at 4° C. when tightly wrapped to prevent drying out. However, it is possible to use them after approximately 2 h incubation at room temperature. The protein A solution is then discarded and the plates washed 3 times in a wash buffer consisting of 0.15M K2HPO4, 0.2 mM ascorbic acid, 0.2% Tween 20, pH7.5 and blotted on a paper towel. Next, 200 μl of assay buffer (same as wash buffer plus 0.1% gelatin) is pipetted into each well and left at room temperature for 30 min. This step is included in an attempt to remove protein A bound with only low affinity to the plate which might otherwise dissociate at later stages in the assay thereby removing bound antibody and tracer. After dumping this solution and blotting, 50 μl of the appropriate concentration of antibody diluted with assay buffer is added to all but 4 wells. To these 4 wells are added assay buffer alone to provide an index of non-specific binding. The antibody dilution used is that which is pre-determined to produce 20-30% maximum binding in the assay. The wells are then left for 2 h at room temperature. […]
A 2 h pre-incubation period at room temperature then follows. […] Subsequently the contents of the wells are discarded and the wells washed 3 times with wash buffer and blotted prior to addition of Microscint 20 and counting in the Top Count plate reader. […]

[5] = system: genetically narcoleptic Doberman pinschers; experiment: polygraphic recording of sleep-wake parameters; format: in vivo
Method: as §1
One to 4 μg/kg of Hcrt-1 (orexin-A, #003-30, Phoenix Pharmaceuticals, Mountain View, Calif.) dissolved in normal saline (100 μg in 2 ml) was administered through the cephalic vein using a glass syringe. The glass syringe was pre-soaked in 1% BSA, rinsed in Milli-Q water, then dried at 60° C. prior to use. This treatment combined with the large volume of the dilutent used minimizes problems caused by the “stickiness” of the peptide. […]
Polygraphic recording. […] Polygraphic variables were recorded for 4 hrs after Hcrt-1 (3 μg/kg) or saline injection.
as §3

[6] = Hcrt-1 levels by solid-phase RIA, normal human; format: in vivo
Method: as §4
The 96-well plates are first coated with protein A(Sigma, binding capacity 9-11 mg of human IgG per mg) by adding 0.1 μg in 100 μl of 0.1M sodium bicarbonate, pH9, to each well. The plates are normally prepared in advance and can be stored for several weeks at 4° C. when tightly wrapped to prevent drying out. However, it is possible to use them after approximately 2 h incubation at room temperature. The protein A solution is then discarded and the plates washed 3 times in a wash buffer consisting of 0.15M K2HPO4, 0.2 mM ascorbic acid, 0.2% Tween 20, pH7.5 and blotted on a paper towel. Next, 200 μl of assay buffer (same as wash buffer plus 0.1% gelatin) is pipetted into each well and left at room temperature for 30 min. This step is included in an attempt to remove protein A bound with only low affinity to the plate which might otherwise dissociate at later stages in the assay thereby removing bound antibody and tracer. After dumping this solution and blotting, 50 μl of the appropriate concentration of antibody diluted with assay buffer is added to all but 4 wells. To these 4 wells are added assay buffer alone to provide an index of non-specific binding. The antibody dilution used is that which is pre-determined to produce 20-30% maximum binding in the assay. The wells are then left for 2 h at room temperature.
Standard solutions of Hcrt-1 are prepared in quadruplet ranging from 0.1 to 50 fmol in 50 μl. These standards (plus four blanks) are made up in RIA buffer. All dilutions are carried out in polypropylene tubes to minimize loss due to ‘sticking’. The contents of each tube are then transferred to the assay wells following dumping of the antibody solution, washing 3 times with wash buffer and blotting.
A 2 h pre-incubation period at room temperature then follows. At the end of this time 50 μl of assay buffer containing approximately 5,000 CPM of ^125I-labeled tracer peptide is added to each well and the plate left to incubate overnight at 4° C. (this final incubation step can be reduced to approx. 2 h with only slight loss of sensitivity). Subsequently the contents of the wells are discarded and the wells washed 3 times with wash buffer and blotted prior to addition of Microscint 20 and counting in the Top Count plate reader. Results from the Solid-Phase Radioimmunoassay (RIA) for Hypocretin (Hcrt-1) are shown below in Table I: […]

[7] = system: genetically narcoleptic Doberman pinschers; experiment: actigraphy of sleep-wake periods and activity level; format: in vivo
Method: as §1, §2
The effects of Hcrt-1 on sleep-wake periods were monitored continuously for 24 hrs/day with collar mounted actigraphs (Actiwatch, Mini Mitter Inc, Sundriver, Oreg.) while the animals remained in their home dog runs. Actigraphs were secured to a neck collar that was placed on the dogs throughout the period of study. Data were downloaded to a PC through an inductively coupled Actiwatch reader and further analyzed by a program of our design. The program could integrate total numbers of movements above a preset amplitude for a measurement of total level of activity in 5 minutes epochs. For analysis of sleep state, actigraphs were first calibrated by placing them on an animal instrumented for conventional polygraphic recording. A threshold was determined for discriminating polygraphically defined waking and sleep in 30-sec epochs. The durations of sleep periods were then counted and tabulated by computer. The sleep-wake bouts measured by actigraph correlated well with hypnograms obtained from polygraphic recording (r=0.84, p<0.001).
as §3
Actigraph measurements were used to calculate the duration of sleep and waking states for the nights following injection. First, comparisons of actigraphic measurements and polygraphically recorded sleep states were made and used to determine thresholds for distinguishing sleep and wake periods. Then wake and sleep state periods were quantified starting 2 hrs following administration. […] These effects lasted for more than 24 hrs (p<0.01, F=5.56, df=3, 15 and p<0.002, F=8.58, df=3, 15 for sleep and wake periods respectively). The frequency of sleep and wake bouts was reduced (p<0.05, F=3.35, df=3, 15 and p<0.05, F=3.40, df=3, 15, respectively) (FIG. 2b, 2c).

[8] = 3 μg/kg, representative actigraph record
[9] = single dose, from 2 hrs after administration

iodinated Hcrt-1: iodinated Hcrt-1 reported in the literature to pass the BBB (QPLPDCCRQKTCSCRLYELLHGAGNHAAGILTL; Orexin-A iodinated; UniProt O43612 34-66, looked up)
passage of the BBB [1]: passes the BBB

Hcrt-1: Hcrt-1 (orexin-A, #003-30, Phoenix Pharmaceuticals) peptide dissolved in normal saline (QPLPDCCRQKTCSCRLYELLHGAGNHAAGILTL; Orexin-A; UniProt O43612 34-66, looked up)
feeding / rate of food consumption ([2]; period of cataplexy suppression after repeated doses): normal feeding during FECTs; also recorded: consumed their food at a normal rate | abnormal behaviors ([2]; throughout the study): no grooming, “wet dog shakes” or other abnormal behaviors | general health of the dogs ([2]; throughout the study): excellent health | REM sleep (REM sleep): selective suppression of REM sleep | IC50 value for this Hcrt-1 assay (Hcrt-1 antiserum): 2 fmol | cataplexy (number of cataplectic attacks) ([3]; 1 μg/kg intravenous): did not produce any change in cataplexy; also recorded: did not affect cataplexy | cataplexy (number of cataplectic attacks) ([3]; 2 μg/kg intravenous): did not produce any change in cataplexy; also recorded: did not affect cataplexy | FECT time (time to consume the food) ([3]; 3 μg/kg intravenous): reduction in the FECT time; also recorded: significant decrease | cataplexy (number of cataplectic attacks / falls) ([3]; 3 μg/kg intravenous): reduction in cataplexy; also recorded: significant decrease in the number of falls | FECT time (time to consume the food) ([3]; 4 μg/kg intravenous): significantly increased the FECT time | cataplexy (number of cataplectic attacks / falls) ([3]; 4 μg/kg intravenous): significantly increased the severity of cataplexy; also recorded: significantly increased the number of falls | effect on cataplexy across doses ([3]; 1 to 4 μg/kg intravenous, ANOVA): significant effect on cataplexy in a dose dependent manner; also recorded: dose dependent change in cataplexy | period without any cataplexy after repeated doses ([3]; after 3-5 doses, two of the 3 dogs treated): ≥ 3 days | time taken to finish the food during the period without cataplexy ([3]; after repeated doses): significantly reduced | period over which severity of cataplexy returned to pretreatment levels ([3]; after repeated doses, both dogs): 3 to 4 days | cataplexy after five doses (FIG. 1D) ([3]; five doses, more severely affected dog): complete suppression of cataplexy during the FECT observed on 3 tests given every other day over a 6 day period | cataplexy after three doses (FIG. 1C) ([3]; three doses, one dog): complete suppression of cataplexy for three consecutive days | Mean level ([4]; Blood serum): 0.011 nM | Range in levels ([4]; Blood serum): 5 to 16 fmol/mL | Mean level ([4]; Cerebrospinal fluid): 0.053 nM | Range in levels ([4]; Cerebrospinal fluid): 26 to 140 fmol/mL | REM sleep ([5]; 3 μg/kg, 4 hr post-injection period, vs saline): significant reduction; also recorded: significant decrease in REM sleep | nonREM sleep ([5]; after Hcrt-1 administration): without change | Mean level ([6]; Blood serum): 0.01 nM | Range in levels ([6]; Blood serum): 8 to 14 fmol/mL | Mean level ([6]; Cerebrospinal fluid): 0.062 nM | Range in levels ([6]; Cerebrospinal fluid): 21 to 203 fmol/mL | motor activity ([7]; 3 μg/kg, after injection, vs saline): increased motor activity; also recorded: increase of motor activity was statistically significant at 0-30 and 30-60 minutes | onset of increase in motor activity after injection [7, 8]: ≤ 5 min | persistence of increase in motor activity [7, 8]: 60 min | sleep consolidation (sleep bout length) ([7]; periods of cataplexy suppression following repeated doses, vs baseline): consolidated (increased sleep bout length) | frequency of sleep bouts ([7]; single dose): reduced; also recorded: decrease in frequency | frequency of wake bouts ([7]; single dose): reduced | how long the effects on sleep and wake period duration lasted ([7]; single dose): more than 24 hrs | mean duration of sleep periods (sleep bout duration) [7, 9]: increased; also recorded: significant increase in sleep bout duration | mean duration of wake periods [7, 9]: increased | total duration of sleep ([7]; vs pre-drug levels): increased after Hcrt-1 as compared to pre-drug levels, but not significantly

Reference: patent US7335640B2, “Administration of hypocretin-1 for treatment of narcolepsy” (The Regents of the University of California, priority 1999, dated 2008)
